Experimental data: the CheMixHub drug solubility set

Experiment: xn = mol fraction of the nth substance listed, in the solute-free solvent

CC(=O)OC(OC(C)=O)c1ccc([N+](=O)[O-])o1 + C1CCOC1 + CC#N
solubility (g/100 g solution)
Conditions	278.15 K	283.15 K	288.15 K	293.15 K	298.15 K	303.15 K	308.15 K	313.15 K	318.15 K	323.15 K
x2 = 0.1463	5.45	7.32	9.5	12.1	15	18.6	22.7	27.8	33.5	40
x2 = 0.2961	9.28	11.7	14.9	18.5	23.1	28.4	34.3	40.7	47.5	54.4
x2 = 0.4354	12.3	15.2	19.6	24.6	29.7	35.9	42.6	49.4	56	62.3
x2 = 0.5816	14.6	17.7	23	28.6	34.3	40.8	47.9	54.4	61	67.2
x2 = 0.7445	17.2	21.4	26.5	32.5	38.5	45.1	51.9	58.3	64.6	70.5
x2 = 0.8896	23.6	28	33.2	39.3	45.3	51.9	57.8	63.6	68.8	73.9

O=C(O)c1ccc(-n2nc(-c3ccccc3O)nc2-c2ccccc2O)cc1 + CC#N + O
298.15 K
Conditions	solubility (g/100 g solution)
x2 = 0.04651	0.126
x2 = 0.0989	0.161
x2 = 0.1583	0.316
x2 = 0.2264	0.736
x2 = 0.3051	1.86
x2 = 0.397	3.21
x2 = 0.506	4.64
x2 = 0.6372	5.9
x2 = 0.798	5.08

CC(C)Oc1ccc2c(=O)c(-c3ccccc3)coc2c1 + CC(=O)N(C)C + CCO
solubility (g/100 g solution)
Conditions	278.15 K	283.15 K	288.15 K	293.15 K	298.15 K	303.15 K	308.15 K	313.15 K	318.15 K	323.15 K
x2 = 0.1146	1.53	1.91	2.45	3.3	4.13	5.36	7.01	8.71	11	14
x2 = 0.2681	2.21	2.72	3.46	4.21	5.26	6.49	8.02	9.92	12.2	15.1
x2 = 0.4379	4.02	4.85	5.82	7.08	8.67	10.2	12.4	14.5	17.7	21.8
x2 = 0.6771	6.41	8.04	9.6	11.1	13	15.4	18	21.2	25	28.9

Cc1cc(Cl)cc(C(=O)O)c1N + CC(C)=O + CC#N
solubility (g/100 g solution)
Conditions	278.15 K	283.15 K	288.15 K	293.15 K	298.15 K	303.15 K	308.15 K	313.15 K	318.15 K	323.15 K
x2 = 0.1114	1.03	1.1	1.25	1.42	1.6	1.82	2.12	2.5	2.98	3.61
x2 = 0.2335	1.51	1.63	1.87	2.13	2.41	2.74	3.2	3.76	4.46	5.3
x2 = 0.3677	1.98	2.16	2.48	2.84	3.21	3.65	4.26	5	5.89	6.95
x2 = 0.516	2.46	2.68	3.09	3.54	4	4.55	5.3	6.22	7.3	8.55
x2 = 0.6807	2.92	3.19	3.69	4.24	4.78	5.44	6.32	7.42	8.69	10.1
x2 = 0.8648	3.39	3.71	4.29	4.92	5.55	6.31	7.34	8.61	10.1	11.7

CCc1cccc2c3c([nH]c12)C(CC)(CC(=O)O)OCC3 (stereo unspecified) + CC(C)=O + CCCCCC
solubility (g/100 g solution)
Conditions	278.15 K	283.15 K	288.15 K	293.15 K	298.15 K	303.15 K	308.15 K	313.15 K	318.15 K	323.15 K
x2 = 0.2707	4.23	4.59	4.94	5.31	5.68	6.06	6.49	6.82	7.19	7.56
x2 = 0.4972	13.3	14.4	15.4	16.4	17.8	19	19.9	20.9	22	23
x2 = 0.69	22.1	23.7	25.3	26.8	28.7	31	32.8	34.7	36.7	38.4
x2 = 0.8558	20.2	21.8	23.3	24.9	26.6	28.4	29.9	31.4	33.3	34.8

Cc1cc(Cl)cc(C(=O)O)c1N + CC(C)=O + CCCCCC
solubility (g/100 g solution)
Conditions	278.15 K	283.15 K	288.15 K	293.15 K	298.15 K	303.15 K	308.15 K	313.15 K	318.15 K	323.15 K
x2 = 0.2386	0.677	0.753	0.884	1.03	1.18	1.35	1.58	1.88	2.21	2.59
x2 = 0.4322	1.29	1.42	1.66	1.92	2.18	2.5	2.92	3.45	4.05	4.74
x2 = 0.5923	1.87	2.05	2.39	2.75	3.12	3.56	4.16	4.9	5.75	6.71
x2 = 0.7271	2.4	2.64	3.07	3.53	3.99	4.55	5.31	6.25	7.32	8.52
x2 = 0.842	2.91	3.2	3.71	4.26	4.81	5.48	6.38	7.5	8.77	10.2
x2 = 0.9411	3.39	3.72	4.31	4.95	5.58	6.35	7.38	8.66	10.1	11.7

N#CC(c1ccc(Cl)cc1)c1c(Cl)cc(-n2ncc(=O)[nH]c2=O)cc1Cl (stereo unspecified) + CC(C)=O + CCO
solubility (g/100 g solution)
Conditions	283.15 K	288.15 K	293.15 K	298.15 K	303.15 K	308.15 K	313.15 K	318.15 K	323.15 K
x2 = 0.1655	2.81	3.32	3.87	4.51	5.25	6.03	6.91	7.89	8.92
x2 = 0.3459	4.12	4.81	5.56	6.42	7.41	8.46	9.6	10.9	12.2
x2 = 0.5434	5.39	6.26	7.2	8.24	9.47	10.8	12.2	13.7	15.2
x2 = 0.7604	6.63	7.67	8.77	10	11.4	13	14.6	16.3	18.1

Cc1cc(Cl)cc(C(=O)O)c1N + CC(C)=O + CO
solubility (g/100 g solution)
Conditions	278.15 K	283.15 K	288.15 K	293.15 K	298.15 K	303.15 K	308.15 K	313.15 K	318.15 K	323.15 K
x2 = 0.0885	1.19	1.38	1.68	1.99	2.4	2.86	3.39	4.09	4.87	5.8
x2 = 0.1908	1.63	1.86	2.21	2.59	3.05	3.58	4.22	5.04	5.96	7.04
x2 = 0.3105	2.08	2.33	2.75	3.19	3.7	4.29	5.04	5.98	7.04	8.27
x2 = 0.4522	2.52	2.8	3.28	3.79	4.35	5.01	5.85	6.92	8.12	9.48
x2 = 0.6228	2.96	3.27	3.81	4.39	4.99	5.71	6.66	7.84	9.18	10.7
x2 = 0.832	3.4	3.74	4.34	4.98	5.64	6.42	7.47	8.77	10.2	11.9

O=CC(O)C(O)C(O)CO (stereo unspecified) + CC(C)O + CCCCCC
solubility (g/100 g solution)
Conditions	x2 = 0.1	x2 = 0.2	x2 = 0.3	x2 = 0.4	x2 = 0.5	x2 = 0.6	x2 = 0.7	x2 = 0.8	x2 = 0.9
283.15 K	0.0751	0.111	0.142	0.164	0.188	0.271	0.405	0.615	0.82
293.15 K	0.0952	0.126	0.198	0.238	0.307	0.453	0.646	0.819	1.12
303.15 K	0.112	0.13	0.233	0.362	0.471	0.665	1	1.4	2.1
313.15 K	0.129	0.16	0.277	0.518	0.76	1.08	1.61	2.29	3.38
323.15 K	0.14	0.247	0.388	0.792	1.16	1.83	2.77	4	6.03

CC1CCC2(C(=O)O)CCC3(C)C(=CCC4C5(C)CCC(O)C(C)(C)C5CCC43C)C2C1C (stereo unspecified) + CC(C)O + O
solubility (g/100 g solution)
Conditions	293.15 K	298.15 K	303.15 K	308.15 K	313.15 K	318.15 K	323.15 K	328.15 K	333.15 K
x2 = 0.0908	0.00219	0.00363	0.00394	0.00575	0.00586	0.00613	0.00653	0.00668	0.0109
x2 = 0.1389	0.00363	0.00474	0.00741	0.00959	0.0147	0.0158	0.0187	0.036	0.0388
x2 = 0.1969	0.0293	0.0352	0.0473	0.0614	0.0752	0.0821	0.0985	0.111	0.13
x2 = 0.2681	0.0944	0.118	0.13	0.142	0.158	0.22	0.239	0.282	0.33
x2 = 0.3575	0.146	0.195	0.236	0.284	0.359	0.387	0.493	0.514	0.656
x2 = 0.4734	0.171	0.276	0.328	0.378	0.529	0.672	1.01	1.16	1.21

O=C(O)c1ccc(-n2nc(-c3ccccc3O)nc2-c2ccccc2O)cc1 + CC(O)CO + CC#N
298.15 K
Conditions	solubility (g/100 g solution)
x2 = 0.05655	2.43
x2 = 0.1188	4.43
x2 = 0.1878	6.62
x2 = 0.2645	8.48
x2 = 0.3504	9.81
x2 = 0.4473	10.7
x2 = 0.5573	11.3
x2 = 0.6833	11.4
x2 = 0.8292	11

O=C(O)c1ccc(-n2nc(-c3ccccc3O)nc2-c2ccccc2O)cc1 + CC(O)CO + CCO
298.15 K
Conditions	solubility (g/100 g solution)
x2 = 0.06303	11.6
x2 = 0.1315	12.2
x2 = 0.206	12.8
x2 = 0.2875	13.4
x2 = 0.3771	13.7
x2 = 0.4759	13.4
x2 = 0.5855	12.4
x2 = 0.7077	11.2
x2 = 0.8449	10.1

O=C(O)c1ccc(-n2nc(-c3ccccc3O)nc2-c2ccccc2O)cc1 + CC(O)CO + CO
298.15 K
Conditions	solubility (g/100 g solution)
x2 = 0.0447	13.5
x2 = 0.09525	14.2
x2 = 0.1529	14.4
x2 = 0.2192	14.6
x2 = 0.2963	14.2
x2 = 0.3871	13.7
x2 = 0.4956	12.9
x2 = 0.6275	11.8
x2 = 0.7912	10.4
